Target: T1, ENT2 (Homo sapiens, UniProt Q14542)
T1 construct: expressed in transfected cells; host or cells: MDCKII (lentiviral transduction)
T1 sequence (Q14542 1-456): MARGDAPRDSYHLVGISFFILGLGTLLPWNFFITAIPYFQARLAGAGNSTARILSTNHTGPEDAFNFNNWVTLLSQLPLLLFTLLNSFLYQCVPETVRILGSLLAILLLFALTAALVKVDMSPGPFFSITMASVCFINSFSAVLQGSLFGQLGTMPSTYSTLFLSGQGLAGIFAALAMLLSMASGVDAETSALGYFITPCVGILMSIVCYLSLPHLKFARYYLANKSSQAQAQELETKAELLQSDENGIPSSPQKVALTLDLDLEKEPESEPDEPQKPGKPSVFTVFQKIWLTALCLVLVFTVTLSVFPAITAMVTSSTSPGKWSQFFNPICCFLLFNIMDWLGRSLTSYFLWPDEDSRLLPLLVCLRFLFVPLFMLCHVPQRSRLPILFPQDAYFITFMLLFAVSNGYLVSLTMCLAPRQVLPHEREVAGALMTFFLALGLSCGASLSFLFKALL
Assay: ENT2-mediated adenosine uptake in ENT2-MDCKII cells
Format: cell-based
Procedure: ENT and CNT transporter interactions were investigated in transporter-overexpressing cell lines. Madin-Darby Canine Kidney II (MDCKII) cell lines overexpressing the human uptake transporters CNT1, CNT2, ENT1, and ENT2 were generated via lentiviral transduction. Cell cultures were maintained in Dulbecco’s modified Eagle’s medium (DMEM) and 4500 mg/L of glucose supplemented with GlutaMax^TM, 10% v/v fetal bovine serum (FBS), 100 units/mL penicillin, and 100 µg/mL streptomycin (all from Gibco/ThermoFisher, Waltham, MA, USA) at 37 °C in 5% CO2 at 95% humidity. For uptake inhibition assays, transporter-expressing cells and mock-transduced control cells were seeded on 96-well tissue culture plates at a density of 1 × 10^5 cells/well. […] To determine the amounts of accumulated radiolabeled substrates, cell lysates mixed with a liquid scintillation cocktail were measured with a MicroBeta2 microplate counter (PerkinElmer, Singapore).
Transporter-specific accumulation of the probe substrate was calculated using the following formula: ACCSpec = ACCTRP − ACCMock, where ACCTRP is the accumulation of the probe in transporter-expressing cells and ACCMock is the accumulation of the probe in control cells. Relative transporter-specific accumulation values were calculated as percentages of the control value (with vehicle only).

Question: `CC(C)C(=O)OC[C@H]1O[C@@H](n2ccc(NO)nc2=O)[C@H](O)[C@@H]1O` [EIDD-2801, Molnupiravir] was tested. Which “inhibition of adenosine uptake by ENT2” value did it give?
Answer: only mildly inhibited
